Data taken from patent US7652037B2, “Methods of lowering lipid levels in a mammal” (City Of Hope, priority 2003, dated 2010).

Columns and labels:
STZ-Diabetic Rats = test: AGEs/ALEs (CML, CEL) in skin collagen by LC-ESI/MS/MS (Example 12); format: in vivo, rat
Procedure: Tail tendon collagen was isolated from each rat in Example 11 and the degree of AGE formation in collagen was assessed by measurement of fluorescent AGE after enzymatic digestion. Figarola et al., Diabetologia 46:1140-115, 2003. Skin collagen isolation and reduction was performed as described in Shaw et al., Methods Mol. Biol. 186:129-137, 2002. Levels of AGEs/ALEs were normalized to the lysine content of the collagen samples.
Ion-pair reversed-phase liquid chromatography/tandem mass spectroscopy analysis was performed using an Agilent Technologies™ LC1100 series system interfaced to a Micromass Quatro™ Ultima Triple Quadripole Mass Spectrometer. HPLC separation was achieved using a Phenomenex Synergi™ Hydro-RP […] 80A 150×2.0 mm column preceded by a Phenomenex C18 guard column. The column temperature was maintained at 25° C. and the flow was 0.2 mL/minute. The isocratic mobile phase consisted of 10% acetonitrile and 0.1% heptafluorobutyric acid in water. Total run time was 12 minutes; injection volume was 20 μL. The autoinjector temperature was 5° C. The electrospray ionization source of the mass spectrophotometer was operated in the positive ion mode with a cone gas flow of 190 L/hour and desolvation gas flow of 550 L/hour. The capillary voltage was set to 2.7 kV. Cone and collision cell voltages were optimized to 25 V and 13 eV for CML, 33 V and 12 eV d4CML, 24 V and 14 eV for CEL, […] and 14 eV for D8CEL, and […] and 16 eV for lysine, respectively. […] The desolvation temperature was increased to 300° C., and the solvent delay program was used from 0 to 3 minutes and 10 to 12 minutes. The fragmentation of these compounds can be induced under collision dissociation conditions and acidic mobile phase. The precursor→product ion combinations at m/z were 205.1→130.11 for CML, 209.12→134.12 for d4CML, 219.11→130.11 for CEL, 227.18→138.16 for d8CEL, 147.15→84.21 for lysine and 151.27→88.33 for DL-d4Lysine were used in multiple reaction monitoring (MRM) mode to determine these compounds. MassLynx™ version 3.5 software was used for data acquisition and processing.
All solutions of standards and internal standards were prepared in water. Standard solution containing both CML and CEL were prepared at six concentrations: 4, 10, 20, 40, 100 and 200 pmol/mL for CML and 2, 5, 10, 20, 50 and 100 pmol/mL for CEL. Quality control solutions were prepared at two concentrations: 7.5 and 150 pmol/mL for CML and 3.75 and 75 pmol/mL for CEL. A stock solution of heavy-labeled internal standards (d4CML and d8CEL) was prepared at 800 pmol/mL. For generation of a standard curve, 130 μL of standard solution was freshly mixed with 10 μL 0.1 M ammonium bicarbonate, 10 μL 0.05% HFBA and 10 μL internal standard stock solution to give a caliber. […]

Human LDL = test: Cu++-mediated oxidation of LDL, TBARS (Example 9); settings: 5 μM CuCl2, 10-250 μM compound, 5 hours, 37° C.
Procedure: The ability of the LR compounds to inhibit lipid peroxidation was tested using Cu^++-mediated lipid oxidation, a common in vitro model for studies on lipoxidative modifications of proteins. The effects of the LR compounds on lipid peroxidation were studied using Cu^++-mediated oxidation of LDL. Human LDL (50 μg of protein/mL) was incubated at 37° C. in chelex-treated PBS buffer alone or in the presence of 5 μM CuCl2 or 5 μM CuCl2 plus various concentrations of the inhibitor compounds (10-250 μM). After 5 hours of incubation, the amount of thiobarbituric acid reactive substances (expressed as malondialdehyde (MDA) equivalents) generated in the reaction mixture was calculated according to methods described by Dillon et al., Life Sci. #72:1583-1594, 2003. Briefly, aliquots from each sample were precipitated with 20% trichloroacetic acid, centrifuged and an equal volume of 1% thiobarbituric acid was added to the supernatant. The samples then were heated to 95° C. for 10 minutes, and upon cooling, the absorbance was read at 532 nm. Hydrolyzed tetraethoxypropane was used as a standard for the MDA equivalent calculation.

Row | Molecule | CEL concentration in skin collagen (STZ-Diabetic Rats) | CML concentration in skin collagen (STZ-Diabetic Rats) | inhibition of Cu++-mediated LDL oxidation (lipid peroxidation) (Human LDL)
1 | CC(C)(Oc1ccc(NC(=O)c2ccc3ccccc3c2)cc1)C(=O)O [LR-9, 4-(2-napthylcarboxamido) phenoxyisobutyric acid] | significantly limited the increase | significantly limited the increase | –
2 | CC(Oc1cccc2cccnc12)C(=O)O (stereo not drawn) [LR-74, 2-(8-quinolinoxy) propionic acid] | significantly limited the increase | significantly limited the increase | better than AG
3 | methylene bis(4,4′-(2-chlorophenylureidophenoxyisobutyric acid) [LR-90] | – | – | better than AG
